Here are results for 15 compounds from patent US20220409629A1, “BENZODIAZEPINE DERIVATIVES FOR TREATING A RESPIRATORY SYNCYTIAL VIRUS (RSV) INFECTION” (priority 2019, published 2022).

One series has as its system RSV A2. Description: RSV plaque reduction assay. The class given is cell-based, respiratory syncytial virus (RSV). As to conditions: human respiratory syncytial virus, HepG2; Hep-G2 cells, RSV A2, mean of at least two experiments. On the procedure:
Compounds were subjected to RSV plaque reduction assays according to the following protocol.
Hep-G2 cells (ECACC, 85011430) were passaged in flasks and seeded in 24-well plates in DMEM containing antibiotics and supplemented with 10% FBS. During inoculation and subsequent incubation, cells were cultured in DMEM containing 2% FBS. 100 plaque forming unit/well of RSV (RSV A2 ECACC, 0709161v) was mixed with eight serial dilutions of compound. Subsequently, 100 μL of the virus/compound mixtures was added to confluent Hep-G2 cell monolayers. The cells and virus/compound mixtures were incubated at 37° C. in a humidified 5% CO2 incubator for 2 h prior to removal of the inoculum and addition of 1 mL of overlay (DMEM containing 2% FBS and 0.8% CMC) containing compound dilutions. The cells and were incubated at 37° C. in a humidified 5% CO2 incubator for 2 days.
Cells were washed with PBS before adding 75/25% v/v EtOH/MeOH, for 3 min. Fixative was removed and plates were washed with PBS. A pre-titrated amount of the primary antibody was added in 200 μL PBS/2% milk powder, and plates incubated for 90 min at 37° C. The plates were washed 3 times with PBS/0.05% Tween20 before addition of rabbit anti-goat horse radish peroxidase in 200 μL PBS/2% milk powder, and incubated for 1 h at 37° C. Following three wash steps with PBS/0.05% Tween20, 200 μL ready-to-use TrueBlue was added and plates were incubated at rt for 10-15 min before washing with water. After removal of water, plates were air-dried in the dark.
Plates were scanned and analysed using the Immunospot S6 Macro analyser, which is equipped with BioSpot analysis software for counting immunostained plaques (virospots). Plaque counts were used to calculate % infection relative to the mean of the plaque count in the virus control wells for RSV. The EC50 value was calculated as 50% reduction in signal, respectively, by interpolation of inhibition curves fitted with a 4-parameter nonlinear regression with a variable slope in Dotmatics. Plaque EC50 and cell toxicity CC50 values are a mean of at least two experiments and figures are rounded to whole units.

The next series in a line: Cell cytotoxicity CC50. The class given is cell-based. The settings on record: human; mean of at least two experiments.
The nature of series [1]: Liver microsomal stability, rat. The class given is in vitro ADME. The settings on record: pH 7.4; rat liver microsomes, 0.5 mg/mL protein, 1 μM compound, NADPH; >80% remaining at 45 min denoted >140; read-out: Liver Microsomal Stability: t1/2 (min); rat. As to the method: (§1) Compounds were subjected to the following assays to investigate liver microsomal stability, permeability and plasma protein binding.
(§2) Pooled liver microsomes were purchased from a reputable commercial supplier and stored at −80° C. prior to use. Microsomes (final protein concentration 0.5 mg/mL), 0.1 M phosphate buffer pH 7.4 and test compound (final substrate concentration 1 μM; final DMSO concentration 0.25%) were pre-incubated at 37° C. prior to the addition of NADPH (final concentration 1 mM) to initiate the reaction. The final incubation volume was 50 μL. A control incubation was included for each compound tested where 0.1 M phosphate buffer pH 7.4 was added instead of NADPH (minus NADPH). Two control compounds were included with each species. All incubations were performed singularly for each test compound. Each compound was incubated for 0, 5, 15, 30 and 45 min. The control (minus NADPH) was incubated for 45 min only. The reactions were stopped by transferring incubate into acetonitrile at the appropriate time points, in a 1:3 ratio. The termination plates are centrifuged at 3,000 rpm for 20 min at 4° C. to precipitate the protein. Following protein precipitation, the sample supernatants were combined in cassettes of up to 4 compounds, internal standard added, and samples analysed by LC-MS/MS. From a plot of ln peak area ratio (compound peak area/internal standard peak area) against time, the gradient of the line was determined. Subsequently, half-life (t1/2) and intrinsic clearance (CLint) were calculated.

Series [2] in a line: Liver microsomal stability, dog. In kind it is in vitro ADME. The settings on record: pH 7.4; dog liver microsomes, 0.5 mg/mL protein, 1 μM compound, NADPH; >80% remaining at 45 min denoted >140; read-out: Liver Microsomal Stability: t1/2 (min); dog. As to the method:
as §1, §2

Series [3] in a line: Liver microsomal stability, human. In kind it is in vitro ADME. As to conditions: pH 7.4; human liver microsomes, 0.5 mg/mL protein, 1 μM compound, NADPH; >80% remaining at 45 min denoted >140; read-out: Liver Microsomal Stability: t1/2 (min); human. As to the method: as §1, §2

The compound `O=C(N[C@H]1N=C(c2ccccc2)c2cccc(F)c2NC1=O)c1cn(CC(F)(F)F)nc1-c1ccc(NC2CC2)nc1F` [Example 33, 3-[6-(Cyclopropylamino)-2-fluoropyridin-3-yl]-N-[(3S)-9-fluoro-2-oxo-5-phenyl-2,3-dihydro-1H-1,4-benzodiazepin-3-yl]-1-(2,2,2-trifluoroethyl)-1H-pyrazole-4-carboxamide] displayed a concentration for a half-maximal effect (EC50) in the series on RSV A2 of 80 nM. Moreover, the cytotoxic concentration (CC50) in the series “Cell cytotoxicity CC50” is more than 25000 nM. Further, the half-life in series [1] stood at 56 min; in series [2], 81 min; in series [3], 80.3 min.
For `CCc1ccc(-c2c(C(=O)N[C@H]3N=C(c4ccccc4)c4cccc(F)c4NC3=O)cnn2C2CCOCC2)c(F)n1` [Example 53, 5-(6-Ethyl-2-fluoropyridin-3-yl)-1-(oxan-4-yl)-N-[(3S)-9-fluoro-2-oxo-5-phenyl-1,3-dihydro-1,4-benzodiazepin-3-yl]pyrazole-4-carboxamide], in the series on RSV A2, the EC50 is 72 nM. Also, the 50% cytotoxic concentration (CC50) in “Cell cytotoxicity CC50” is more than 25000 nM. The half-life was 200 min in series [1], 183 min in series [2] and more than 140 min in series [3].
Regarding `CCn1ncc(C(=O)N[C@H]2N=C(c3ccccc3)c3cccc(F)c3NC2=O)c1-c1ncc(NC2CC2)cc1F` [Example 12, 5-[5-(Cyclopropylamino)-3-fluoropyridin-2-yl]-1-ethyl-N-[(3S)-9-fluoro-2-oxo-5-phenyl-1,3-dihydro-1,4-benzodiazepin-3-yl]pyrazole-4-carboxamide], the concentration for a half-maximal effect (EC50) in the series with RSV A2 amounted to 45 nM. In addition, the CC50 in the series “Cell cytotoxicity CC50” was more than 25000 nM. In addition, the half-life in series [1] was found to be 51.1 min; in series [2], 68.5 min; in series [3], 193 min.
For `CCn1ncc(C(=O)N[C@H]2N=C(c3ccccc3)c3ccccc3NC2=O)c1-c1ccc(NC2(C)CC2)nc1F` [Example 6, 1-Ethyl-5-[2-fluoro-6-[(1-methylcyclopropyl)amino]pyridin-3-yl]-N-[(3S)-2-oxo-5-phenyl-1,3-dihydro-1,4-benzodiazepin-3-yl]pyrazole-4-carboxamide], in the series with RSV A2, the response was half-maximal at 32 nM (EC50). The compound also registered a CC50 in the series “Cell cytotoxicity CC50” of more than 25000 nM. In addition, the half-life in series [1] is 31.5 min; in series [2], 72.5 min; in series [3], 23 min.
The matching figures for `CCNc1ccc(-c2c(C(=O)N[C@H]3N=C(c4ccccc4)c4ccccc4NC3=O)c(C)nn2CC)c(F)n1` [Example 10, 1-Ethyl-5-[6-(ethylamino)-2-fluoropyridin-3-yl]-3-methyl-N-[(3S)-2-oxo-5-phenyl-1,3-dihydro-1,4-benzodiazepin-3-yl]pyrazole-4-carboxamide]: 89 nM, more than 25000 nM, 20.2 min, 85.8 min and 48.1 min.
The matching figures for `CCNc1ccc(-c2c(C(=O)N[C@H]3N=C(c4ccccc4)c4ccccc4NC3=O)cnn2C2CC2)c(F)n1` [Example 14, 1-Cyclopropyl-5-[6-(ethylamino)-2-fluoropyridin-3-yl]-N-[(3S)-2-oxo-5-phenyl-1,3-dihydro-1,4-benzodiazepin-3-yl]pyrazole-4-carboxamide]: 95 nM, more than 25000 nM, 37.9 min, 59.3 min and 93.7 min.
Regarding `O=C(N[C@H]1N=C(c2ccccc2)c2ccccc2NC1=O)c1cn(C2CCC(F)(F)CC2)nc1-c1ccc(NC2CC2)nc1F` [Example 34, 3-[6-(Cyclopropylamino)-2-fluoropyridin-3-yl]-1-(4,4-difluorocyclohexyl)-N-[(3S)-2-oxo-5-phenyl-1,3-dihydro-1,4-benzodiazepin-3-yl]pyrazole-4-carboxamide], the half-maximal effective concentration (EC50) in the series on RSV A2 stood at 96 nM. This compound also displayed a CC50 in “Cell cytotoxicity CC50” of more than 25000 nM. The half-life was 121 min in series [1], 85.8 min in series [2] and 119 min in series [3].
As to `CCc1ccc(-c2c(C(=O)N[C@H]3N=C(c4ccccc4)c4cccc(F)c4NC3=O)cnn2C2CCN(C)CC2)c(F)c1` [Example 59, 5-(4-Ethyl-2-fluorophenyl)-1-(1-methylpiperidin-4-yl)-N-[(3S)-9-fluoro-2-oxo-5-phenyl-1,3-dihydro-1,4-benzodiazepin-3-yl]pyrazole-4-carboxamide], in the series with RSV A2, the EC50 came out at 107 nM. Besides, the CC50 in the series “Cell cytotoxicity CC50” was determined as 15200 nM.
The like results for `CC(C)Nc1ccc(-c2c(C(=O)N[C@H]3N=C(c4ccccc4)c4cccc(F)c4NC3=O)cnn2C2CCOCC2)cn1` [Example 58, 1-(Oxan-4-yl)-5-[6-(propan-2-ylamino)pyridin-3-yl]-N-[(3S)-9-fluoro-2-oxo-5-phenyl-1,3-dihydro-1,4-benzodiazepin-3-yl]pyrazole-4-carboxamide] were, in that order, 99 nM and more than 25000 nM.
The like results for `CCc1ccc(-c2c(C(=O)N[C@H]3N=C(c4ccccc4)c4ccccc4NC3=O)cnn2C2CCOCC2)c(F)c1` [Example 46, 5-(4-Ethyl-2-fluorophenyl)-1-(oxan-4-yl)-N-[(3S)-2-oxo-5-phenyl-1,3-dihydro-1,4-benzodiazepin-3-yl]pyrazole-4-carboxamide] were, in that order, 34 nM and more than 25000 nM.
Take `CCOc1nn(CC)c(-c2ccccc2F)c1C(=O)N[C@H]1N=C(c2ccccc2)c2ccccc2NC1=O` [Example 54, 3-Ethoxy-1-ethyl-5-(2-fluorophenyl)-N-[(3S)-2-oxo-5-phenyl-1,3-dihydro-1,4-benzodiazepin-3-yl]pyrazole-4-carboxamide]: the EC50 in the series with RSV A2 is 51 nM. The compound also had a CC50 in “Cell cytotoxicity CC50” of more than 25000 nM.
The like results for `CC(C)c1ccc(-c2c(C(=O)N[C@H]3N=C(c4ccccc4)c4cccc(F)c4NC3=O)cnn2C2CCOCC2)c(F)c1` [Example 45, 5-(2-Fluoro-4-propan-2-ylphenyl)-1-(oxan-4-yl)-N-[(3S)-9-fluoro-2-oxo-5-phenyl-1,3-dihydro-1,4-benzodiazepin-3-yl]pyrazole-4-carboxamide] were, in that order, 38 nM and more than 25000 nM.
The like results for `CCc1ccc(-c2c(C(=O)N[C@H]3N=C(c4ccccc4)c4ccccc4NC3=O)cnn2C2CCOCC2)c(F)n1` [Example 52, 5-(6-Ethyl-2-fluoropyridin-3-yl)-1-(oxan-4-yl)-N-[(3S)-2-oxo-5-phenyl-1,3-dihydro-1,4-benzodiazepin-3-yl]pyrazole-4-carboxamide] were, in that order, 87 nM and more than 25000 nM.
For the compound `O=C(N[C@H]1N=C(c2ccccc2)c2cccc(F)c2NC1=O)c1cnn(C2CCOCC2)c1-c1ccc(NC2CC2)nc1` [Example 56, 5-[6-(Cyclopropylamino)pyridin-3-yl]-1-(oxan-4-yl)-N-[(3S)-9-fluoro-2-oxo-5-phenyl-1,3-dihydro-1,4-benzodiazepin-3-yl]pyrazole-4-carboxamide], the EC50 in the series with RSV A2 stood at 78 nM. For the same compound, the cytotoxic concentration (CC50) in the series “Cell cytotoxicity CC50” was more than 25000 nM.
The matching figures for `CC(C)Nc1ccc(-c2c(C(=O)N[C@H]3N=C(c4ccccc4)c4cccc(F)c4NC3=O)cnn2C2COC2)c(F)n1` [Example 41, N-[(3S)-9-Fluoro-2-oxo-5-phenyl-1,3-dihydro-1,4-benzodiazepin-3-yl]-5-[2-fluoro-6-(propan-2-ylamino)pyridin-3-yl]-1-(oxetan-3-yl)pyrazole-4-carboxamide]: 91 nM and more than 25000 nM.
